Data from PubChem BioAssay (NCI).
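Assay format: 96-well plates, 48-hour exposure. The concentration for 50% growth inhibition is given as GI50. At the TGI there is no net growth.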

Columns and labels:
Assay in all cases: NCI tumour cell line growth inhibition, 48 h
[1] = system: NCI-H460 lung
[2] = system: SR leukemia
[3] = system: SW-620 colon
[4] = system: SF-295 CNS
[5] = system: U251 CNS
[6] = system: MCF7 breast
[7] = system: SK-MEL-5 melanoma
[8] = system: CAKI-1 renal

| SMILES | GI50 [1] | TGI [1] | GI50 [2] | TGI [2] | GI50 [3] | TGI [3] | GI50 [4] | TGI [4] | GI50 [5] | TGI [5] | GI50 [6] | TGI [6] | GI50 [7] | TGI [7] | GI50 [8] | TGI [8] |
| --- | --- | --- | --- | --- | --- | --- | --- | --- | --- | --- | --- | --- | --- | --- | --- | --- |
| O=C(Nc1n[nH]c2cc(-c3cc(F)ccc3F)ccc12)C1CC1 | 8.81 µM | > 25 µM | 6.38 µM | > 25 µM | 10.7 µM | > 25 µM | 16.9 µM | > 25 µM | 15.3 µM | > 25 µM | 7.43 µM | > 19.8 µM | 8.09 µM | > 25 µM | > 20.9 µM | > 25 µM |
| N=C1CCCC1C(=S)SCCC(N)=O (stereo unspecified) | – | > 100 µM | – | > 100 µM | – | > 100 µM | – | > 100 µM | – | > 100 µM | – | > 100 µM | – | > 100 µM | – | > 100 µM |
| Cn1c(I)c(C#C[Si](C)(C)C)c(=O)n(C(=O)c2ccccc2)c1=O | 8.34 µM | 26.2 µM | 1.89 µM | – | 2.01 µM | 4.27 µM | 21.5 µM | 48.7 µM | 12.5 µM | 25 µM | 1.92 µM | 5.65 µM | 2.76 µM | 9.15 µM | 2.56 µM | 6.85 µM |
| CC1=NN(c2cccc(Cl)c2)C(=O)/C1=C\c1cn(CC(O)CN2CCCCC2)c2ccccc12 (stereo unspecified) | 2.44 µM | 6.4 µM | – | – | 1.73 µM | 3.53 µM | 2.24 µM | 5.49 µM | 3.64 µM | 14 µM | 6.47 µM | 21.5 µM | 3.34 µM | 10.9 µM | 1.83 µM | 5.33 µM |
| O=C(Nc1sc2c(c1C(=O)O)CCCC2)c1ccco1 | 23.5 µM | > 50 µM | 46.2 µM | > 50 µM | > 50 µM | > 50 µM | 26.3 µM | > 50 µM | 16.4 µM | > 50 µM | 26.5 µM | > 50 µM | > 50 µM | > 50 µM | 44.1 µM | > 50 µM |
| COc1cc2c(cc1OCCNC(=O)/C=C1\C[C@H]3C=Nc4cc(OCc5ccccc5)c(OC)cc4C(=O)N3C1)N=C[C@@H]1CCCN1C2=O | 13.6 µM | 30.6 µM | 1.46 µM | 4.56 µM | 5.36 µM | 24.7 µM | 18.3 µM | > 100 µM | 2.82 µM | 8.35 µM | 2.62 µM | 9.2 µM | 1.3 µM | 20.8 µM | 32.3 µM | > 100 µM |
| CCCCCCCC/C=C/CCCCCCCC1=NC(C)(C)CN1C(C)(C)CO | 1.81 µM | 3.31 µM | – | – | 1.63 µM | 3.11 µM | 1.81 µM | 3.52 µM | – | – | 1.82 µM | 3.43 µM | 1.75 µM | 3.13 µM | 1.39 µM | 2.88 µM |
| COc1ccc(-c2ccc(C3CC(c4ccccc4)=NN3)o2)c([N+](=O)[O-])c1 (stereo unspecified) | 36.5 µM | > 100 µM | 30.3 µM | 87.9 µM | 47.5 µM | > 100 µM | 28.6 µM | > 100 µM | 57.3 µM | > 100 µM | 31.8 µM | > 100 µM | – | – | 34.4 µM | > 100 µM |
